Assay results: the NIST ThermoML archive (doi:10.1016/j.jct.2017.03.026)
Several values for one entry are separate records, joined by “and”; a condition that tells them apart may be missing. Equal entries are not always repeated.

Experiment: molar heat capacity at constant pressure
Conditions: 101.33 kPa, Crystal, Small (less than 1 g) adiabatic calorimetry

O.O.O.O.O.O=S(=O)([O-])[O-].[Cu+2] [copper(II) sulfate pentahydrate]
Conditions	molar heat capacity at constant pressure
4.261 K	0.5156 J/K/mol
4.305 K	0.5483 J/K/mol
4.311 K	0.5046 J/K/mol
4.335 K	0.5159 J/K/mol
4.395 K	0.5368 J/K/mol
4.524 K	0.5196 J/K/mol
4.539 K	0.5173 J/K/mol
4.569 K	0.4829 J/K/mol
4.583 K	0.5241 J/K/mol
4.777 K	0.4969 J/K/mol
4.798 K	0.4984 J/K/mol
4.823 K	0.4929 J/K/mol
4.824 K	0.4432 J/K/mol
4.978 K	0.5029 J/K/mol
5 K	0.4962 J/K/mol
5.069 K	0.4964 J/K/mol
5.082 K	0.4427 J/K/mol
5.104 K	0.4944 J/K/mol
5.177 K	0.4896 J/K/mol
5.342 K	0.4946 J/K/mol
5.372 K	0.4889 J/K/mol
5.378 K	0.4929 J/K/mol
5.56 K	0.4939 J/K/mol
5.621 K	0.4969 J/K/mol
5.651 K	0.4969 J/K/mol
5.749 K	0.4906 J/K/mol
5.9 K	0.5111 J/K/mol
5.914 K	0.4479 J/K/mol
5.925 K	0.5016 J/K/mol
5.937 K	0.4989 J/K/mol
6.172 K	0.5019 J/K/mol
6.291 K	0.5248 J/K/mol
6.303 K	0.5186 J/K/mol and 0.4587 J/K/mol
6.448 K	0.5358 J/K/mol
6.726 K	0.5553 J/K/mol
6.774 K	0.5665 J/K/mol
6.778 K	0.5585 J/K/mol
6.783 K	0.4881 J/K/mol
7.002 K	0.5855 J/K/mol
7.249 K	0.6135 J/K/mol
7.254 K	0.6117 J/K/mol
7.273 K	0.6282 J/K/mol
7.547 K	0.6634 J/K/mol
7.713 K	0.7001 J/K/mol
7.723 K	0.6939 J/K/mol
7.725 K	0.6355 J/K/mol
7.824 K	0.7166 J/K/mol
8.096 K	0.7788 J/K/mol
8.182 K	0.7853 J/K/mol
8.189 K	0.786 J/K/mol
8.19 K	0.7356 J/K/mol
8.371 K	0.8474 J/K/mol
8.632 K	0.9011 J/K/mol
8.65 K	0.9014 J/K/mol and 0.8412 J/K/mol
8.653 K	0.8934 J/K/mol
8.928 K	0.968 J/K/mol
9.09 K	1.043 J/K/mol
9.107 K	0.9518 J/K/mol
9.116 K	1.028 J/K/mol
9.204 K	1.057 J/K/mol
9.48 K	1.134 J/K/mol
9.555 K	1.149 J/K/mol
9.563 K	1.103 J/K/mol
9.583 K	1.165 J/K/mol
9.756 K	1.2 J/K/mol
10 K	1.299 J/K/mol
10.02 K	1.297 J/K/mol and 1.25 J/K/mol
10.03 K	1.306 J/K/mol
10.05 K	1.315 J/K/mol
10.4 K	1.456 J/K/mol
10.7 K	1.569 J/K/mol
10.71 K	1.536 J/K/mol
10.77 K	1.6 J/K/mol
10.86 K	1.634 J/K/mol
11.32 K	1.835 J/K/mol
11.62 K	1.99 J/K/mol
11.63 K	1.944 J/K/mol
11.7 K	2.014 J/K/mol
11.78 K	2.059 J/K/mol
12.24 K	2.283 J/K/mol
12.54 K	2.453 J/K/mol
12.55 K	2.432 J/K/mol
12.62 K	2.5 J/K/mol
12.7 K	2.533 J/K/mol
13.16 K	2.801 J/K/mol
13.47 K	3.01 J/K/mol and 3.006 J/K/mol
13.55 K	3.048 J/K/mol
13.62 K	3.099 J/K/mol
14.09 K	3.404 J/K/mol
14.24 K	3.51 J/K/mol
14.39 K	3.63 J/K/mol
14.4 K	3.652 J/K/mol
14.48 K	3.676 J/K/mol
14.55 K	3.735 J/K/mol
15 K	4.062 J/K/mol
15.33 K	4.33 J/K/mol and 4.316 J/K/mol and 4.374 J/K/mol
16.27 K	5.102 J/K/mol and 5.148 J/K/mol
16.34 K	5.147 J/K/mol
17.21 K	5.92 J/K/mol
17.22 K	5.985 J/K/mol
17.34 K	6.038 J/K/mol
18.16 K	6.788 J/K/mol
18.17 K	6.865 J/K/mol
18.34 K	6.974 J/K/mol
19.12 K	7.738 J/K/mol and 7.803 J/K/mol
19.34 K	7.95 J/K/mol
20 K	8.662 J/K/mol
20.07 K	8.711 J/K/mol
20.08 K	8.781 J/K/mol
20.34 K	8.968 J/K/mol
21.52 K	10.37 J/K/mol and 10.5 J/K/mol
21.84 K	10.73 J/K/mol
22.86 K	11.97 J/K/mol
23.43 K	12.81 J/K/mol
23.44 K	12.67 J/K/mol
23.8 K	13.12 J/K/mol
23.86 K	13.21 J/K/mol
24.84 K	14.42 J/K/mol
25 K	14.64 J/K/mol
25.35 K	15.41 J/K/mol
25.49 K	15.25 J/K/mol
25.75 K	15.84 J/K/mol
25.81 K	15.7 J/K/mol
26.5 K	16.59 J/K/mol
26.79 K	16.97 J/K/mol
27.28 K	18.19 J/K/mol
27.48 K	17.9 J/K/mol
27.72 K	18.24 J/K/mol
27.77 K	18.33 J/K/mol
28.45 K	19.31 J/K/mol
28.75 K	19.73 J/K/mol
29.23 K	20.9 J/K/mol
29.43 K	20.68 J/K/mol
29.7 K	21.26 J/K/mol
29.73 K	21.15 J/K/mol
30 K	21.51 J/K/mol
30.41 K	22.11 J/K/mol
30.7 K	22.53 J/K/mol
31.22 K	23.13 J/K/mol
31.39 K	23.59 J/K/mol
31.68 K	24.03 J/K/mol and 23.15 J/K/mol
32.37 K	25.14 J/K/mol
32.66 K	25.56 J/K/mol
33.19 K	26.4 J/K/mol
33.35 K	26.55 J/K/mol
33.65 K	27.01 J/K/mol
33.66 K	26.86 J/K/mol
34.34 K	28.1 J/K/mol
34.62 K	28.57 J/K/mol
35 K	29.13 J/K/mol
35.15 K	29.64 J/K/mol
35.31 K	29.65 J/K/mol
35.61 K	30.07 J/K/mol
35.64 K	30.19 J/K/mol
36.17 K	31.27 J/K/mol
36.26 K	31.26 J/K/mol
36.29 K	31.18 J/K/mol
36.59 K	31.76 J/K/mol
37.11 K	32.81 J/K/mol
37.27 K	32.75 J/K/mol
37.57 K	33.3 J/K/mol
37.61 K	33.52 J/K/mol
38.25 K	34.37 J/K/mol
38.34 K	34.7 J/K/mol
38.38 K	34.84 J/K/mol
38.55 K	34.93 J/K/mol
39.23 K	35.95 J/K/mol
39.54 K	36.51 J/K/mol
40 K	37.15 J/K/mol
40.22 K	37.51 J/K/mol
40.31 K	37.77 J/K/mol
40.35 K	37.93 J/K/mol
41.2 K	39.02 J/K/mol
42.19 K	40.35 J/K/mol
42.29 K	40.63 J/K/mol
42.32 K	41.04 J/K/mol
43.17 K	41.93 J/K/mol
44.16 K	43.29 J/K/mol
44.27 K	43.38 J/K/mol
44.29 K	44.04 J/K/mol
45 K	44.39 J/K/mol
45.14 K	44.61 J/K/mol
46.12 K	45.87 J/K/mol
46.25 K	46.08 J/K/mol
46.27 K	47.03 J/K/mol
47.11 K	47.24 J/K/mol
48.1 K	48.62 J/K/mol
48.23 K	48.95 J/K/mol
48.24 K	49.93 J/K/mol
49.08 K	50.18 J/K/mol
50 K	51.93 J/K/mol
50.07 K	52.01 J/K/mol
50.21 K	52.31 J/K/mol
50.22 K	52.88 J/K/mol
51.06 K	53.89 J/K/mol
52.04 K	55.62 J/K/mol
52.19 K	55.66 J/K/mol and 55.74 J/K/mol
53.03 K	57.23 J/K/mol
54.02 K	58.82 J/K/mol
54.17 K	58.74 J/K/mol
54.18 K	58.73 J/K/mol
55 K	60.26 J/K/mol and 60.19 J/K/mol
55.99 K	61.63 J/K/mol
56.15 K	61.82 J/K/mol
56.16 K	61.65 J/K/mol
56.98 K	62.69 J/K/mol
57.97 K	63.82 J/K/mol
58.14 K	64.89 J/K/mol
58.15 K	64.47 J/K/mol
58.96 K	65.23 J/K/mol
59.95 K	66.92 J/K/mol
60 K	66.98 J/K/mol
60.12 K	67.94 J/K/mol
60.14 K	67.3 J/K/mol
60.93 K	68.42 J/K/mol
61.92 K	69.94 J/K/mol
62.11 K	70.89 J/K/mol
62.13 K	70.09 J/K/mol
62.92 K	71.4 J/K/mol
63.91 K	72.71 J/K/mol
64.1 K	73.66 J/K/mol
64.13 K	72.85 J/K/mol
64.9 K	74 J/K/mol
65 K	74.12 J/K/mol
65.89 K	75.34 J/K/mol
66.1 K	76.33 J/K/mol
66.12 K	75.65 J/K/mol
66.89 K	76.71 J/K/mol
67.88 K	78.07 J/K/mol
68.09 K	78.22 J/K/mol and 78.9 J/K/mol
68.88 K	79.31 J/K/mol
69.87 K	80.54 J/K/mol
70 K	80.85 J/K/mol and 80.84 J/K/mol
70.08 K	81.47 J/K/mol
71.87 K	83.38 J/K/mol
72.45 K	84.21 J/K/mol
72.58 K	84.91 J/K/mol
74.88 K	87.18 J/K/mol
75 K	87.24 J/K/mol
75.45 K	87.98 J/K/mol
75.59 K	88.72 J/K/mol
77.89 K	90.83 J/K/mol
77.95 K	91.36 J/K/mol
78.48 K	91.71 J/K/mol
79.11 K	92.21 J/K/mol
79.15 K	92.84 J/K/mol
79.36 K	93.03 J/K/mol
80 K	93.33 J/K/mol
80.16 K	93.95 J/K/mol
80.92 K	94.52 J/K/mol
81.18 K	95.24 J/K/mol
81.51 K	95.36 J/K/mol
82.2 K	96.42 J/K/mol
82.48 K	96.2 J/K/mol
82.91 K	97.32 J/K/mol
83.22 K	97.59 J/K/mol
84.24 K	98.9 J/K/mol
85 K	99.12 J/K/mol
85.26 K	100.17 J/K/mol
85.52 K	99.69 J/K/mol
85.95 K	100.9 J/K/mol
86.12 K	100.4 J/K/mol
86.28 K	101.27 J/K/mol
87.26 K	101.63 J/K/mol
87.3 K	102.49 J/K/mol
88.08 K	103.41 J/K/mol
88.28 K	102.83 J/K/mol
88.33 K	103.67 J/K/mol
88.57 K	103.19 J/K/mol
89 K	104.46 J/K/mol
89.31 K	103.96 J/K/mol
89.36 K	104.73 J/K/mol
89.57 K	104.25 J/K/mol
90 K	104.7 J/K/mol
90.33 K	105.21 J/K/mol
90.39 K	105.94 J/K/mol
90.76 K	106.39 J/K/mol
91.36 K	106.32 J/K/mol
91.43 K	107.16 J/K/mol
91.62 K	106.68 J/K/mol
91.84 K	106.75 J/K/mol
92.05 K	107.96 J/K/mol
92.39 K	107.49 J/K/mol
92.47 K	108.25 J/K/mol
93.36 K	109.28 J/K/mol
93.42 K	108.59 J/K/mol
93.5 K	109.47 J/K/mol
93.89 K	109.02 J/K/mol
94.46 K	109.82 J/K/mol
94.55 K	110.67 J/K/mol
94.68 K	110.09 J/K/mol
95 K	110.3 J/K/mol
95.12 K	111.38 J/K/mol
95.49 K	110.97 J/K/mol
95.59 K	111.73 J/K/mol
95.94 K	111.25 J/K/mol
95.97 K	112.11 J/K/mol
96.53 K	111.9 J/K/mol
96.63 K	112.87 J/K/mol
97.56 K	113.1 J/K/mol
97.68 K	113.95 J/K/mol
97.74 K	113.41 J/K/mol
97.98 K	113.44 J/K/mol
98.19 K	114.68 J/K/mol
98.58 K	114.96 J/K/mol
98.6 K	114.41 J/K/mol
98.72 K	115.17 J/K/mol
99.65 K	115.37 J/K/mol
99.77 K	116.31 J/K/mol
100 K	115.7 J/K/mol
100.03 K	115.65 J/K/mol
100.69 K	116.49 J/K/mol
100.81 K	117.42 J/K/mol
100.82 K	116.62 J/K/mol
101.2 K	117.71 J/K/mol
101.27 K	117.92 J/K/mol
